Data as given in patent US9492468B2, “Methods and compositions for treatment of acute heart failure” (PERICOR THERAPEUTICS, INC., priority 2008, dated 2016).

Key:
[1] = Urinary excretion of GP531 after oral dosing in rat (relative/absolute bioavailability); type: in vivo
Protocol: Two separate studies were conducted in the rat using the free base and/or the water soluble hydrochloride salt of Formula Va. In the first study, equimolar doses of GP531 (20 mg/kg) were administered orally in aqueous solution to separate groups (n=3) of rats as GP531 tartrate or Formula Va hydrochloride. […] Cmax increased 6-fold and AUC over 0-4 hr increased 4-fold. In a subsequent study, using the same equimolar doses of GP531 tartrate and prodrug, the relative bioavailability of GP531 was estimated in a group of rats (n=4) by comparison of the amount of GP531 excreted in urine after dosing.

[2] = Octanol:water partition coefficient; type: physicochemical; details: read-out: Octanol: water partition coefficient (log P)
From the text: Administering a better absorbed more lipophilic prodrug, which is subsequently hydrolysed to GP531, achieves an increase in the systemic availability of GP531.

- GP531 bioavailability, free base vs hydrochloride salt of the prodrug [1]: no significant difference
- logP [2]: 3.31
Structure (SMILES): CC(C)(C)C(=O)O[C@@H]1[C@H](OC(=O)C(C)(C)C)[C@@H](CNCc2ccccc2)O[C@H]1n1cnc(C(N)=O)c1N [Formula Va]
